# System: MAPK signaling in HCT-116 cells
# Assay: Western blot of MAPK signaling markers
# Format: cell-based, human
# Settings: HCT116 KRAS mutant cell line, 4 hours, micromolar concentrations
# Procedure: For Western blot studies, HCT116 cells (5×10^6) were seeded into 10 cm dishes in McCoy's 5A plus 10% FBS. A375 cells (2.5×10^6) were seeded into 10 cm dishes in DMEM plus 10% FBS. Cells were allowed to adhere overnight prior to addition of the indicated amount of test compound (BVD-523) or vehicle control. Cells were treated for either 4 or 24 hours before isolation of whole-cell protein lysates, as specified below. Cells were harvested by trypsinisation, pelleted and snap frozen. Lysates were prepared with RIPA (Radio-Immunoprecipitation Assay) buffer, clarified by centrifugation and quantitated by bicinchoninic acid assay (BCA) assay. 20-50 μg of protein was resolved by SDS-PAGE electrophoresis, blotted onto PVDF membrane and probed using the antibodies detailed in Table 9 (for the 4-hour treatment) and Table 10 (for the 24-hour treatment) below.
compound,measurement,value
CC(C)Nc1cc(-c2c[nH]c(C(=O)N[C@H](CO)c3cccc(Cl)c3)c2)c(Cl)cn1 [BVD-523],Phosphorylation of ERK-dependent residues (T359/S363) in RSK 1 and 2,reduced

# Source: US11007183B2, “Cancer treatments using combinations of PI3K/Akt pathway and ERK inhibitors” (BIOMED VALLEY DISCOVERIES, INC., priority 2013, dated 2021)
